Measured values taken from article PMC9481570, “A small molecule antagonist of SMN disrupts the interaction between SMN and RNAP II” (Nature Communications, 2022).
Several values for one entry are separate records, joined by “and”; a condition that tells them apart may be missing. Equal values may be shown once.

Columns and labels:
Assay in all cases: Affinity-purification and mass spectrometry (AP-MS) chemical proteomics, all proteins;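 as to Difference: 200 µM free competitor with 20 µM biotin probe overnight in lysate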
Assay type in all cases: binding
[1] = target: T1, proteins displaced from immobilized biotin-Cmpd 1 pulldowns (U2OS cell lysate) (Homo sapiens, UniProt P38646); conditions: GN=HSPA9 (P38646)
T1 construct: endogenous in cells; host or cells: U2OS

[2] = target: T2, proteins displaced from immobilized biotin-Cmpd 1 pulldowns (U2OS cell lysate) (Homo sapiens, UniProt P62306); conditions: GN=SNRPF (P62306)
T2 construct: endogenous in cells; host or cells: U2OS

[3] = target: T3, proteins displaced from immobilized biotin-Cmpd 1 pulldowns (U2OS cell lysate) (Homo sapiens, UniProt Q9H8H0); conditions: GN=NOL11 (Q9H8H0)
T3 construct: endogenous in cells; host or cells: U2OS

[4] = target: T4, proteins displaced from immobilized biotin-Cmpd 1 pulldowns (U2OS cell lysate) (Homo sapiens, UniProt Q8WXX7); conditions: GN=AUTS2 (Q8WXX7)
T4 construct: endogenous in cells; host or cells: U2OS

[5] = target: T5, proteins displaced from immobilized biotin-Cmpd 1 pulldowns (U2OS cell lysate) (Homo sapiens, UniProt P55072); conditions: GN=VCP (P55072)
T5 construct: endogenous in cells; host or cells: U2OS

[6] = target: T6, proteins displaced from immobilized biotin-Cmpd 1 pulldowns (U2OS cell lysate) (Homo sapiens, UniProt O43684); conditions: GN=BUB3 (O43684)
T6 construct: endogenous in cells; host or cells: U2OS

[7] = target: T7, proteins displaced from immobilized biotin-Cmpd 1 pulldowns (U2OS cell lysate) (Homo sapiens, UniProt Q9NQC3); conditions: GN=RTN4 (Q9NQC3)
T7 construct: endogenous in cells; host or cells: U2OS

[8] = target: T8, proteins displaced from immobilized biotin-Cmpd 1 pulldowns (U2OS cell lysate) (Homo sapiens, UniProt O75369); conditions: GN=FLNB (O75369)
T8 construct: endogenous in cells; host or cells: U2OS

[9] = target: T9, proteins displaced from immobilized biotin-Cmpd 1 pulldowns (U2OS cell lysate) (Homo sapiens, UniProt Q9BSJ8); conditions: GN=ESYT1 (Q9BSJ8)
T9 construct: endogenous in cells; host or cells: U2OS

[10] = target: T10, proteins displaced from immobilized biotin-Cmpd 1 pulldowns (U2OS cell lysate) (Homo sapiens, UniProt P01040); conditions: GN=CSTA (P01040)
T10 construct: endogenous in cells; host or cells: U2OS
T10 sequence (P01040 whole entry): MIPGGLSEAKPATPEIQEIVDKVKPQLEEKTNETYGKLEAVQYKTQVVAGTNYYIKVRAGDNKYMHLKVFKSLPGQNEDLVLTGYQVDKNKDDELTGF

T1 sequence (P38646 47-679): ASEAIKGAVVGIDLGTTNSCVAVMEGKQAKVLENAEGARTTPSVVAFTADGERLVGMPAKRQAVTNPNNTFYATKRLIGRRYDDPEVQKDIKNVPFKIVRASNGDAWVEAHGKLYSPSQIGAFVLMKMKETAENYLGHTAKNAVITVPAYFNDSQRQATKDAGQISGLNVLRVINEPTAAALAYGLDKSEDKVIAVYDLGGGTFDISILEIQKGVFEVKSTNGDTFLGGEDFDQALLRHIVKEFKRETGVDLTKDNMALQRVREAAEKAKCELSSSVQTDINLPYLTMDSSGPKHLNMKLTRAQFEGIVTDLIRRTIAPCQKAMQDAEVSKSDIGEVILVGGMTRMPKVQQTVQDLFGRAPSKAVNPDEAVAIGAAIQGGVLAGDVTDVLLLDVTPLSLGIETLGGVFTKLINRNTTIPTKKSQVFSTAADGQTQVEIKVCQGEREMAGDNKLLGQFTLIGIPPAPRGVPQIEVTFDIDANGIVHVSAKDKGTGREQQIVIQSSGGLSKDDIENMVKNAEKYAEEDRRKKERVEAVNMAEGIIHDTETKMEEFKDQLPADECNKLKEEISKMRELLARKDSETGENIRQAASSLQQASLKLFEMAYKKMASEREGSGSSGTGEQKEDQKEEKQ
T6 sequence (O43684 whole entry): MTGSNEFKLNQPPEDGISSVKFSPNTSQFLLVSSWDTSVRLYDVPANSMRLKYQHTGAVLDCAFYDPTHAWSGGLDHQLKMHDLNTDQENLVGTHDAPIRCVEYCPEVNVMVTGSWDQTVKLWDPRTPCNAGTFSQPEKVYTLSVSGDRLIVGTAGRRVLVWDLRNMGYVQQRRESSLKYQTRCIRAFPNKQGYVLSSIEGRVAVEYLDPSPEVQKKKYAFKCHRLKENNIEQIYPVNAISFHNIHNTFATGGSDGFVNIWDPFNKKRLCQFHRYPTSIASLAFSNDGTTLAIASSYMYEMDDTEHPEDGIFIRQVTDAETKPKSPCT
T4 sequence (Q8WXX7 whole entry): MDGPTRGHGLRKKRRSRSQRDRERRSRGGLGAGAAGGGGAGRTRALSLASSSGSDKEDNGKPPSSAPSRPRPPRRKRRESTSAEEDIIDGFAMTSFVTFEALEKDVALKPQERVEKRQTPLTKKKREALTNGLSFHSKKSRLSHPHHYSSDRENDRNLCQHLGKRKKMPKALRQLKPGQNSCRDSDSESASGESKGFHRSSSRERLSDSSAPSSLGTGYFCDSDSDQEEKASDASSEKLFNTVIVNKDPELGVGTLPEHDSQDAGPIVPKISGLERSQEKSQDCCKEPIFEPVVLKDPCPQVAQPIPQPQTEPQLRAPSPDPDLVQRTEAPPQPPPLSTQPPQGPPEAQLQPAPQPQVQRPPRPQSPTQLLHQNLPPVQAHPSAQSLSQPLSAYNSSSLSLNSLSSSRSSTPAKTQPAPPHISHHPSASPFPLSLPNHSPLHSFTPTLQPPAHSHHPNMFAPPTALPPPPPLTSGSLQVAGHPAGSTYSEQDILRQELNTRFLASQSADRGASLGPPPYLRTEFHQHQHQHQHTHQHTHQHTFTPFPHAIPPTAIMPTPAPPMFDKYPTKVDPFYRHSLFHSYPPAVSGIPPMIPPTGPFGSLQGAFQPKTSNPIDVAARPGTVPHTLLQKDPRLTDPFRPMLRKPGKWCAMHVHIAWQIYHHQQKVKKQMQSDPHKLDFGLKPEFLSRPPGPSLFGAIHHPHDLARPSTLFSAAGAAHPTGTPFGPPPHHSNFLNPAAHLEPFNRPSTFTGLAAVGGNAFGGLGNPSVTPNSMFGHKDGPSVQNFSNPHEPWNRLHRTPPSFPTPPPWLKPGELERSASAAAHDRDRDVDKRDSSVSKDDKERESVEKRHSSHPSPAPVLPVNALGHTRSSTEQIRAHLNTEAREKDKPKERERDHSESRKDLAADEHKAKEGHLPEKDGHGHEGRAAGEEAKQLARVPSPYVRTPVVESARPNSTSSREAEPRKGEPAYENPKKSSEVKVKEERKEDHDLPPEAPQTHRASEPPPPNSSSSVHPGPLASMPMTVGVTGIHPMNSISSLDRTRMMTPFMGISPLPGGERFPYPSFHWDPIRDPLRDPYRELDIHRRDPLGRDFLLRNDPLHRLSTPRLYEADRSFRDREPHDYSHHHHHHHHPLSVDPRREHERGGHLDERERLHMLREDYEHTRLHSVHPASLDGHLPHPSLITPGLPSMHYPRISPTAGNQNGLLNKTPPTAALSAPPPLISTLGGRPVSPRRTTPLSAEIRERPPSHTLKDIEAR
T9 sequence (Q9BSJ8 whole entry): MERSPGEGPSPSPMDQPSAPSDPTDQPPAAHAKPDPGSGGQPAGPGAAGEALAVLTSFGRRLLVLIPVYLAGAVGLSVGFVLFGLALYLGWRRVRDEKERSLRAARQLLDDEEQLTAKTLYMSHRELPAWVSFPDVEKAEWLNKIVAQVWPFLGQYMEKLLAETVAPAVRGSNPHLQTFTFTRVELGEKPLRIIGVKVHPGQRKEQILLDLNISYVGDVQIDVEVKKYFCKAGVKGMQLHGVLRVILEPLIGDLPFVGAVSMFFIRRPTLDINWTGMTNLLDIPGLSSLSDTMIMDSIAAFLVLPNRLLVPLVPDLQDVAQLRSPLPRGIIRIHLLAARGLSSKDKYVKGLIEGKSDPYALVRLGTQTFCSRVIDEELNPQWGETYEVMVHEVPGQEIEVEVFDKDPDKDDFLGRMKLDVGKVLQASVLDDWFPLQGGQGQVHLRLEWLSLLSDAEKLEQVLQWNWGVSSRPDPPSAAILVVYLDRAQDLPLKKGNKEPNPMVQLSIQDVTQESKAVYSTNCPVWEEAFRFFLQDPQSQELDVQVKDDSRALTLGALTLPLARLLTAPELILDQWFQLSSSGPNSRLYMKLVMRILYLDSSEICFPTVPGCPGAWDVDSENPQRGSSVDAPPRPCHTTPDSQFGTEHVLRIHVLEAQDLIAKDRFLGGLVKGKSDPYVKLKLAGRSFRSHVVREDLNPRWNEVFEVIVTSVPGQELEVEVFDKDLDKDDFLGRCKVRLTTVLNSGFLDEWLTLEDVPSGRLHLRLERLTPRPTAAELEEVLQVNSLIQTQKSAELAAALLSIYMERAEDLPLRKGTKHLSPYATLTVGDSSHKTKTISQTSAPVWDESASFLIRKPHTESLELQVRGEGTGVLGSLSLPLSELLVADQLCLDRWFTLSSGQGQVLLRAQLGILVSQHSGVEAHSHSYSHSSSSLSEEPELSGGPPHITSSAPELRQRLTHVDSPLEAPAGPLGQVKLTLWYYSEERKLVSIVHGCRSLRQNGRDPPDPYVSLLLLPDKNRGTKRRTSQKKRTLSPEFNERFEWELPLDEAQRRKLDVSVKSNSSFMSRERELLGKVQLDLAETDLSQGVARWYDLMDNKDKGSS
T7 sequence (Q9NQC3 whole entry): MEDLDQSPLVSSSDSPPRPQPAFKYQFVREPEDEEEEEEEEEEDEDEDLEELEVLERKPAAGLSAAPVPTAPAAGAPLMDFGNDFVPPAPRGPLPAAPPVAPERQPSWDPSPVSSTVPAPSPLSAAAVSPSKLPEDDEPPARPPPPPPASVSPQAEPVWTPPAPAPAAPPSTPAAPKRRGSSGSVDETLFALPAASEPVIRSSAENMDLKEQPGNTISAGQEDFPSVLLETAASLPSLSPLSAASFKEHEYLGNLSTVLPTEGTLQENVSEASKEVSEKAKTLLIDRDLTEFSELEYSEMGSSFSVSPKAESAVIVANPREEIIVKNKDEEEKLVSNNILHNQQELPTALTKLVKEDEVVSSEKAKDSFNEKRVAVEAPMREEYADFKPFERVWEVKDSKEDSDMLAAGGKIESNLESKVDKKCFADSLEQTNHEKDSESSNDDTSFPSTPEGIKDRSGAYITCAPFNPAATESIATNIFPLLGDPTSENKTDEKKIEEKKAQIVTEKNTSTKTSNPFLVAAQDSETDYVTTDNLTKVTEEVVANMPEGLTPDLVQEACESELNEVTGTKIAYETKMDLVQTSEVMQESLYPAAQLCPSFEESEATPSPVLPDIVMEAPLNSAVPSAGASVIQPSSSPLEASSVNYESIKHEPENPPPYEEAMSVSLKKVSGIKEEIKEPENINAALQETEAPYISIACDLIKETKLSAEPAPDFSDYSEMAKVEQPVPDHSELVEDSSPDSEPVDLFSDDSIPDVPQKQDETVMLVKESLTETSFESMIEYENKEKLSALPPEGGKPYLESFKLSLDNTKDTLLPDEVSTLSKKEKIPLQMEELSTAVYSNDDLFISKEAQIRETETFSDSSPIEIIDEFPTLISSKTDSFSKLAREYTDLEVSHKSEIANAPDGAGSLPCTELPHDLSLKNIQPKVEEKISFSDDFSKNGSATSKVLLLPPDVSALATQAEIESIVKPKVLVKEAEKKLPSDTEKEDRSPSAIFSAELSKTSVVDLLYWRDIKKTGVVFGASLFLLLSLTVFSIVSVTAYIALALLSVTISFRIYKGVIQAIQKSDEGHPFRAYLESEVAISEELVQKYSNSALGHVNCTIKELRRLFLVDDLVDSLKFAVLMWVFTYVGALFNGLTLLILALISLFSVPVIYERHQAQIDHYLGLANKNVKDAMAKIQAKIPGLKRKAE
T2 sequence (P62306 whole entry): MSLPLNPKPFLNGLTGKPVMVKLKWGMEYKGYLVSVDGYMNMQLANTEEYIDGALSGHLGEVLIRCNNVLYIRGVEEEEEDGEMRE

Question: Which Difference ([1]; Cmpd minus DMSO, -LOG(P-value) 0.718324) does the source give for Cn1c2c(c(=N)c3c1CCC3)CCC2 [Compound 1, 4-methyl-2,3,4,5,6,7-hexahydrodicyclopenta[b,e]pyridin-8(1H)-imine] here?
Answer: 0.7463

Question: What about the “iBAQ Cmpd” value ([1]; replicates 1-3) of the same molecule?
Answer: 19.8777 and 19.6433 and 19.5335

Question: And the Difference ([2]; Cmpd minus DMSO, -LOG(P-value) 2.38454)?
Answer: -6.902

Question: What about the “iBAQ Cmpd” value ([2]; replicates 1-3) of the same molecule?
Answer: 16.7845 and 14.607 and 12.7996

Question: What about the Difference ([3]; Cmpd minus DMSO, -LOG(P-value) 1.02475) of the same molecule?
Answer: -0.9892

Question: What about the “iBAQ Cmpd” value ([3]; replicates 1-3) of the same molecule?
Answer: 17.1431 and 16.1539 and 16.3373

Question: What about the Difference ([4]; Cmpd minus DMSO, -LOG(P-value) 1.37908) of the same molecule?
Answer: 1.498

Question: What about the “iBAQ Cmpd” value ([4]; replicates 1-3) of the same molecule?
Answer: 16.2582 and 17.12 and 17.1513

Question: And the Difference ([5]; Cmpd minus DMSO, -LOG(P-value) 1.20929)?
Answer: 2.227

Question: What about the “iBAQ Cmpd” value ([5]; replicates 1-3) of the same molecule?
Answer: 18.6461 and 18.1931 and 16.8577

Question: And the Difference ([6]; Cmpd minus DMSO, -LOG(P-value) 1.63376)?
Answer: 1.137

Question: What about the “iBAQ Cmpd” value ([6]; replicates 1-3) of the same molecule?
Answer: 19.492 and 19.0748 and 18.4379

Question: And the Difference ([7]; Cmpd minus DMSO, -LOG(P-value) 0.85719)?
Answer: 2.734

Question: And the “iBAQ Cmpd” value ([7]; replicates 1-3)?
Answer: 19.1423 and 18.4673 and 18.3569

Question: And the Difference ([8]; Cmpd minus DMSO, -LOG(P-value) 0.706969)?
Answer: 1.057

Question: What about the “iBAQ Cmpd” value ([8]; replicates 1-3) of the same molecule?
Answer: 17.1694 and 17.27 and 16.0757

Question: And the Difference ([9]; Cmpd minus DMSO, -LOG(P-value) 2.56654)?
Answer: 4.81

Question: What about the “iBAQ Cmpd” value ([9]; replicates 1-3) of the same molecule?
Answer: 19.5229 and 18.9864 and 18.8876

Question: What about the Difference ([10]; Cmpd minus DMSO, -LOG(P-value) 0.909034) of the same molecule?
Answer: -0.9866

Question: What about the “iBAQ Cmpd” value ([10]; replicates 1-3) of the same molecule?
Answer: 23.1983 and 23.5243 and 22.4826
